Laboratory results: patent US11014912B2, “Cyanopyrrolidine derivatives with activity as inhibitors of USP30” (MISSION THERAPEUTICS LIMITED, priority 2016, dated 2021)

Molecular target: USP30 (Homo sapiens (Human), UniProt Q70CQ3)
Assay: USP30 biochemical IC50 assay
Settings: fluorescence polarisation, TAMRA labelled peptide linked to ubiquitin substrate; enzyme and compound incubated 30 min at room temp; read after 2 h; read-out: IC50 range
Procedure: USP30 Biochemical IC50 Assay
Dilution plates were prepared at 21 times the final concentration (2100 μM for a final concentration of 100 μM) in 50% DMSO in a 96-well polypropylene V-bottom plate (Greiner #651201). A typical 8-point dilution series would be 100, 30, 10, 3, 1, 0.3, 0.1, 0.03 μM final. Reactions were performed in duplicate in black 384 well plates (small volume, Greiner 784076) in a final reaction volume of 21 μl. Either 1 μl of 50% DMSO or diluted compound was added to the plate. USP30 was diluted in reaction buffer (40 mM Tris, pH 7.5, 0.005% Tween 20, 0.5 mg/ml BSA, 5 mM beta-mercaptoethanol) to the equivalent of 0.05 μl/well and 10 μl of diluted USP30 was added to the compound. Enzyme and compound were incubated for 30 min at room temp. Reactions were initiated by the addition of 50 nM of TAMRA labelled peptide linked to ubiquitin via an iso-peptide bond as fluorescence polarisation substrate. Reactions were read immediately after addition of substrate and following a 2 h incubation at room temperature. Readings were performed on a Pherastar Plus (BMG Labtech). A Excitation 540 nm; A Emission 590 nm.

USP30, sequence (Q70CQ3 57-517): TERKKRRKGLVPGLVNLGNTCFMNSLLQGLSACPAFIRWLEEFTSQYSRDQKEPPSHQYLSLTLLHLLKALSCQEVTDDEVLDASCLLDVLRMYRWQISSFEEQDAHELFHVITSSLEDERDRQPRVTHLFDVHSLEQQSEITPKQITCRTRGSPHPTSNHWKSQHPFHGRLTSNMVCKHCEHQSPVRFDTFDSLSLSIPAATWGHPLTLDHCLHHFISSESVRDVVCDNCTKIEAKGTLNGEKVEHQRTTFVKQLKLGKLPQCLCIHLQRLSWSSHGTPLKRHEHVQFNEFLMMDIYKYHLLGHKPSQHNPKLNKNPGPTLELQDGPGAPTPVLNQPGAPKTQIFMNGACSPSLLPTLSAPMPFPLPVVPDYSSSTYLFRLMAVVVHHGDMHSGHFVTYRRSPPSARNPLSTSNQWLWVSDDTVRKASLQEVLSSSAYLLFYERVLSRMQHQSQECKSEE

Structure (SMILES)	IC50 [nM]
N#CN1CC[C@H](CC(=O)Nc2nnc(-c3ccccc3)s2)C1 [Example 63, (R)-2-(1-cyanopyrrolidin-3-yl)-N-(5-phenyl-1,3,4-thiadiazol-2-yl)acetamide]	1000 to 10000
N#CN1CC[C@H](CC(=O)Nc2cc(-c3ccc(Cl)cc3)no2)C1 [Example 35, (R)—N-(3-(4-Chlorophenyl)isoxazol-5-yl)-2-(1-cyanopyrrolidin-3-yl)acetamide]	100 to 1000
N#CN1CCC(CC(=O)Nc2cc3ccccn3n2)C1 (stereo not drawn) [Example 44, 2-(1-cyanopyrrolidin-3-yl)-N-(pyrazolo[1,5-a]pyridin-2-yl)acetamide]	1000 to 10000
Cc1noc(C)c1-c1ccc2nc(NC(=O)CC3CCN(C#N)C3)cn2c1 (stereo not drawn) [Example 16, 2-(1-Cyanopyrrolidin-3-yl)-N-(6-(3,5-dimethylisoxazol-4-yl)imidazo[1,2-a]pyridin-2-yl)acetamide]	1000 to 10000
N#CN1CCC(=CC(=O)Nc2ccc3ncsc3c2)C1 [Example 21, N-(Benzo[d]thiazol-6-yl)-2-(1-cyanopyrrolidin-3-ylidene)acetamide]	1000 to 10000
N#CN1CCC(CC(=O)Nc2nc3cc(Cl)ccc3o2)C1 (stereo not drawn) [Example 8, N-(5-Chlorobenzo[d]oxazol-2-yl)-2-(1-cyanopyrrolidin-3-yl)acetamide]	100 to 1000
N#CN1CCC(=CC(=O)Nc2cnc3ccccc3c2)C1 [Example 23, 2-(1-Cyanopyrrolidin-3-ylidene)-N-(quinolin-3-yl)acetamide]	100 to 1000
COCCOc1ccc(C2CN(C(=O)C[C@@H]3CCN(C#N)C3)C2)cc1 [Example 66, (S)-3-(2-(3-(4-(2-methoxyethoxy)phenyl)azetidin-1-yl)-2-oxoethyl)pyrrolidine-1-carbonitrile]	1000 to 10000
CN(Cc1cc(-c2ccccc2)[nH]n1)C(=O)C=C1CCN(C#N)C1 [Example 30, 2-(1-Cyanopyrrolidin-3-ylidene)-N-methyl-N-((5-phenyl-1H-pyrazol-3-yl)methyl)acetamide]	100 to 1000

More lines, now with the values ahead:

IC50 [nM]	Structure (SMILES)
100 to 1000	CN(Cc1ccc2ncccc2c1)C(=O)C=C1CCN(C#N)C1 [Example 24, 2-(1-Cyanopyrrolidin-3-ylidene)-N-methyl-N-(quinolin-6-ylmethyl)acetamide]
10 to 100	COc1ccc(C2CN(C(=O)C[C@@H]3CCN(C#N)C3)C2)cc1 [Example 38, (S)-3-(2-(3-(4-Methoxyphenyl)azetidin-1-yl)-2-oxoethyl)pyrrolidine-1-carbonitrile]
100 to 1000	N#CN1CCC(CC(=O)Nc2cc(C(F)(F)F)ccn2)C1 (stereo not drawn) [Example 45, 2-(1-cyanopyrrolidin-3-yl)-N-(4-(trifluoromethyl)pyridin-2-yl)acetamide]
1 to 10	C[C@H](C(=O)Nc1cc(-c2cccc(Cl)c2)no1)[C@@H]1CCN(C#N)C1 [Example 50, (S)-N-(3-(3-chlorophenyl)isoxazol-5-yl)-2-((S)-1-cyanopyrrolidin-3-yl)propanamide]
10 to 100	Cc1cc(C2CN(C(=O)C[C@@H]3CCN(C#N)C3)C2)ccc1C#N [Example 59, (S)-3-(2-(3-(4-cyano-3-methylphenyl)azetidin-1-yl)-2-oxoethyl)pyrrolidine-1-carbonitrile]
10 to 100	COc1cccc(C2CN(C(=O)C[C@@H]3CCN(C#N)C3)C2)c1F [Example 68, (S)-3-(2-(3-(2-fluoro-3-methoxyphenyl)azetidin-1-yl)-2-oxoethyl)pyrrolidine-1-carbonitrile]
1 to 10	N#Cc1cccc(-c2cc(NC(=O)C[C@H]3CCN(C#N)C3)on2)c1 [Example 51, (R)-N-(3-(3-cyanophenyl)isoxazol-5-yl)-2-(1-cyanopyrrolidin-3-yl)acetamide]
1 to 10	N#Cc1cccc(-c2cc(NC(=O)C[C@H]3CCN(C#N)C3)no2)c1 [Example 55, (R)-N-(5-(3-cyanophenyl)isoxazol-3-yl)-2-(1-cyanopyrrolidin-3-yl)acetamide]
10 to 100	COc1cccc(-c2cc(NC(=O)C[C@H]3CCN(C#N)C3)on2)c1 [Example 43, (R)-2-(1-cyanopyrrolidin-3-yl)-N-(3-(3-methoxyphenyl)isoxazol-5-yl)acetamide]
